Reference: PMC10610134, “Verubulin (Azixa) Analogues with Increased Saturation: Synthesis, SAR and Encapsulation in Biocompatible Nanocontainers Based on Ca^2+ or Mg^2+ Cross-Linked Alginate” (Pharmaceuticals, 2023)

What was measured:
[1] = tested on: human breast cancer cell line MCF7′; experiment: MTT cytotoxicity assay, MCF7′; assay type: cell-based; details: MCF7, 64 h treatment, MTT, read-out: IC50, nM MCF7′
Description: The obtained series of verubulin analogues 2a–r (which also included three by-products isolated in the reactions according to Scheme 2) were initially evaluated for cytotoxicity against commonly used human breast cancer cell line MCF7′ (fast-growth subclone), human lung epithelial carcinoma cell line A549 and etiologically non-cancer immortalized lung fibroblast cell line VA13 (WI38 subline 2RA). Cytotoxicity against immortalized human embryonic kidney cell line HEK293T, characterized by a high growth rate, was also studied regarding cytotoxicity against non-cancerous fast-growth cells. A standard MTT assay was performed; verubulin (1) served as a positive reference. The data obtained are presented in Table 1 (for dose–response curves, see Supplementary Materials).
Human breast cancer cell line MCF7′ and human lung adenocarcinoma cell line A549 were kindly provided by Dr. S. Dmitriev (Lomonosov Moscow State University), immortalized human fibroblast cell line VA13 (WI38 subline 2RA) was kindly provided by Dr. M. Rubtsova (Lomonosov Moscow State University), human embryonic kidney HEK293T cell line was kindly provided by Dr. E. Knyazhanskaya (Lomonosov Moscow State University). MCF7′, VA13, A549 and HEK293T cell lines were maintained in DMEM/F-12 (Thermo Fisher Scientific, Waltham, MA, USA) culture medium containing 10% fetal bovine serum (Thermo Fisher Scientific, Waltham, MA, USA) and 50 μg/mL penicillin and 0.05 mg/mL streptomycin at 37 °C (Thermo Fisher Scientific, Waltham, MA, USA) in 5% CO2. Cells were maintained at 37 °C in a humidified MCO-18AC incubator (Sanyo, Tokyo, Japan) supplied with 5% CO2. Cell cultures were tested for the absence of mycoplasma and validated by STR.
The cytotoxicity of the substances was tested using the 3-(4,5-dimethylthiazol-2-yl)2,5-diphenyl tetrazolium bromide (MTT) assay with some modifications. A total of 2500 cells per well for the MCF7′, HEK293T, A549 cell lines or 4000 cells per well for the VA-13 cell line were plated out in 135 μL of DMEM-F12 media (Gibco, Thermo Fisher Scientific, Waltham, MA, USA) in a 96-well plate and incubated in the 5% CO2 incubator for the first 20 h without treatment. Then, 15.8 μL of media–DMSO solutions of tested substances (final DMSO concentrations in the media were 0.5% or less) was added to the cells (triplicate each) and cells were treated for 64 h with 0.023 mg/L–50 mg/L (eight dilutions) of compounds 2f,n,o,r; 1.14 μg/L–2.5 mg/L (eight dilutions) of compounds 2a,b,d,g,h,k,l,p,q; 57.2 ng/L–125 μg/L (eight dilutions) of compounds 2e,i,j; 22.9 ng/L–50 μg/L (eight dilutions) of compounds 1,2c,m. Doxorubicin was used as a control substance. Then, the MTT reagent (Paneco LLC, Moscow, Russia) was added to cells up to a final concentration of 0.5 g/L (10 × stock solution in PBS was used) and incubated for 2 h at 37 °C in the incubator, under an atmosphere of 5% CO2. Then, the MTT solution was discarded, and 140 μL of DMSO (PharmaMed LLC, Moscow, Russia) was added. The plates were swayed on a shaker (120 rpm) to dissolve the formazan. The absorbance was measured using a microplate reader (VICTOR X5 Light Plate Reader, PerkinElmer, Waltham, MA, USA) at a wavelength of 555 nm (in order to measure formazan concentration). The results were used to construct dose–response graphs and to estimate IC50 values (IC50 is the concentration resulting in half of the maximal cytotoxic effect) with GraphPad Prism V, GraphPadSoftware, Inc., San Diego, CA, USA.

[2] = tested on: hTERT-immortalized human fibroblasts; experiment: MTT assay of nanocontainer formulations, fibroblasts; assay type: cell-based; details: Fibroblast, 48 h treatment, 2c concentration in formulations = 0.1 × COO− concentration
Experimental: The MTT assay was carried out on the A549 cell line and non-tumor hTERT-immortalized human fibroblasts for 48 h (Table 2; for cell survival curves, see Supplementary Materials).
Lung adenocarcinoma A549, breast adenocarcinoma MDA-MB-231 and non-tumor fibroblasts immortalized with h-TERT cell lines were obtained from the American Type Culture Collection (Manassas, VA, USA). Cells were routinely propagated in Dulbecco’s modified Eagle’s medium (DMEM) supplemented with 10% fetal bovine serum (HyClone, Logan, UT, USA), 2 mM L-glutamine, 100 U/mL penicillin and 100 μg/mL streptomycin (PanEco, Moscow, Russia) at 37 °C, 5% CO2 in a humidified atmosphere. Cells in the logarithmic phase of growth were used in the experiments.
The cytotoxicity of compounds for human cell lines (A549, MDA-MB-231, non-tumor fibroblasts) was assessed in MTT assays. […]
Cytotoxicity was assessed in a formazan conversion assay (MTT test) after a 48 h exposure. After the completion of drug exposure, 0.5 mg/mL 3-(4,5-dimethylthiazol-2-yl)-2,5-diphenyltetrazolium bromide (MTT reagent) was added to cells for 2 h, the culture medium was removed, cells were resuspended in 100 μL DMSO and the optical densities were measured on a Multiscan FC plate spectrophotometer (Thermo Fisher Scientific, Waltham, MA, USA) at a wavelength of 571 nm. […]

For `COc1ccc(N(C)c2nc(C)nc3c2CCCC3)cc1` [Compound 2c, N-(4-methoxyphenyl)-N,2-dimethyl-5,6,7,8-tetrahydroquinazolin-4-amine], the IC50 [1] was 3.6 ± 0.4 nM and the IC50 [2] was 4.2 ± 0.3 µM.
